Results taken from patent US20090258046A1, “COMPOSITION, FORMULATIONS AND KIT FOR TREATMENT OF RESPIRATORY AND LUNG DISEASE WITH NON-GLUCOCORTICOID STEROIDS AND/OR UBIQUINONE AND A BRONCHODILATING AGENT” (priority 2001, published 2009).

Legend:
[1] = test system: Intracellular adenosine in various Rat Tissues; test: In vivo effect on tissue adenosine levels in rats (HPLC of 1,N6-ethenoadenosine); design: species or system Fischer 344 rats; conditions: for Intracellular adenosine, Brain / Intracellular adenosine, Heart / Intracellular adenosine, Liver: mean ± SEM
Source text: […] […] Hearts were removed from animals and flash frozen in liquid nitrogen with 10 seconds of death. Liver and lungs were removed en bloc and flash frozen with 30 seconds of death. Brain tissue was subsequently dissected.

HT-29 SF cells [2] = test: Reversal of DHEA-mediated growth inhibition by medium supplements; assay type: cell-based, human; conditions: 25 μM DHEA, 48 hour treatment; 2 μM MVA, 80 μM SQ, 15 μg/ml CH, RN 30 μM each, DN 20 μM each
Experimental: RN plus DN, or MVA plus CH plus RN, or medium that was not supplemented. All compounds were obtained from Sigma Chemical Co. (St. Louis, Mo.) Cholesterol was solubilized in ethanol immediately before use. […] In A, the medium was supplemented with 2 μM MVA, 80 μM SQ, 15 μg/ml CH, or MVA plus CH (MVA+CH) or was not supplemented (CON). […] RN plus DN (RN+DN); or MVA plus CH plus RN (MVA+CH+RN). […] Columns represent cell growth percentage of untreated controls; bars represent SEM. Increase in cell number in untreated controls was […]. Each data point represents quadruplicate dishes from four independent experiments. Statistical analysis was performed using Student's t test κ ρ<0.01; φ ρ<, 0.001; compared to treated controls.

HT-29 SF cells [3] = test: Reversal of DHEA effect on cell cycle by medium supplements (flow cytometry); assay type: cell-based, human; conditions: for prevention of DHEA-induced S phase depletion: 2 FM MVA, 15 Fg/ml CH, RN 30 FM
HT-29 SF cells [4] = test: DHEA effect on cell cycle distribution (flow cytometry, propidium iodide); assay type: cell-based, human
HT-29 SF cells [5] = test: DHEA effect on cell growth (Coulter counter cell number)
Experimental: Cell cultures, HT-29 SF cells, which represent a subline of HY-29 cells (ATCC, Rockville, Md.) and are adapted for growth in completely defined serum-free PC-1 medium (Ventrex, Portland, Me.), were obtained. Stock cultures were maintained in this medium at 37° (in a humidified atmosphere containing 5% CO2).

purified G6PDH = purified G6PDH (Homo sapiens, UniProt P11413); test: Enzymatic assay of purified G6PDH (absorbance at 340 nm); conditions: in vitro
Experimental: All experiments were repeated 4 times.
A second group was added different concentrations of a CoQ of long side chain (in triplicate), and a third group received a CoQ of short side chain (in triplicate), both at various doses in the μM range.
The reaction was started by addition of the enzyme, and the increase in absorbance at 340 nm was measured for 5 minutes. Each data point was conducted in triplicate, and the fill experiment was repeated 4 times.

[6] = folinic acid 50 mg/kg intraperitoneally once daily for fourteen days
[7] = high dose methyltestosterone daily for two weeks, versus control
[8] = methyltestosterone 40 mg/kg by gavage once daily for fourteen days

Sequence of purified G6PDH (P11413 whole entry): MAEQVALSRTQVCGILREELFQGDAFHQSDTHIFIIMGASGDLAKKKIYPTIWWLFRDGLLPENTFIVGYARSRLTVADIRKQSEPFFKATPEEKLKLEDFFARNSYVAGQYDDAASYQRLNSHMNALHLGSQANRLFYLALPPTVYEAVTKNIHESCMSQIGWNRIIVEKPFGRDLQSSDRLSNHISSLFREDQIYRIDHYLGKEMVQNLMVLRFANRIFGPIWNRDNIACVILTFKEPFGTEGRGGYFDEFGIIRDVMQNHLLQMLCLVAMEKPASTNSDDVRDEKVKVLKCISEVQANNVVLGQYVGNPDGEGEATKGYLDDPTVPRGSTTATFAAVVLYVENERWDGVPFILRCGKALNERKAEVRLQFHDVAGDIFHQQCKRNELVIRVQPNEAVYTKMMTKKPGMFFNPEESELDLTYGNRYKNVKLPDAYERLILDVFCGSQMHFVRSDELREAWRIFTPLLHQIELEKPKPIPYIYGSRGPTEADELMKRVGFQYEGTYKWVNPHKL

`Nc1nc(=O)c2c([nH]1)NCC(CNc1ccc(C(=O)N[C@@H](CCC(=O)O)C(=O)O)cc1)N2C=O` (mixture of isomers) [Folinic Acid, Folinic acid] was tested, and the “Intracellular adenosine, Brain” value [1, 6] was 0.72 ± 0.09 nmols/mg protein, the “Intracellular adenosine, Heart” value [1, 6] was 12.4 ± 2.1 nmols/mg protein and the “Intracellular adenosine, Liver” value [1, 6] was 16.4 ± 2.4 nmols/mg protein. For the same molecule, the “effect on adenosine levels, all organs studied” value ([1]; folinic acid administered alone) was “increase” and the “effect of coadministration on steroid-mediated adenosine depletion” value ([1]; folinic acid coadministered with DHEA or methyltestosterone) was “completely abrogated”.

With `CC(C)CCC[C@@H](C)[C@H]1CC[C@H]2[C@@H]3CC=C4C[C@@H](O)CC[C@]4(C)[C@H]3CC[C@]12C` [CH, cholesterol] the “reversal of DHEA-induced growth inhibition” value (HT-29 SF cells [2]) was “no such effect”, the “prevention of DHEA-induced S phase depletion” value (HT-29 SF cells [3]; 48 hours) was “very little effect” and the “prevention of DHEA-induced S phase depletion” value (HT-29 SF cells [3]; 72 hours) was “no effect”.

`C[C@]12CC[C@H](O)CC1=CC[C@@H]1[C@@H]2CC[C@]2(C)C(=O)CC[C@@H]12` [DHEA, dehydroepiandrosterone] was tested, and the “proportion of cells in S phase” value (HT-29 SF cells [4]; 200 μM DHEA, after 24 hours, continued through the treatment) was “decreased”, the “overall effect on cell cycle” value (HT-29 SF cells [4]; 25-200 μM DHEA, 24-72 hours) was “G1 block in HT-29 SF cells in a time- and dose-dependent manner” and the G2M phase cells (HT-29 SF cells [4]; 25 or 50 μM DHEA, after 48 hours) was “transient increase”. For the same molecule, the “percentage of cells in G1 phase” value (HT-29 SF cells [4]; 25 or 50 μM DHEA, after 72 hours) was “increased”, the cell cycle distribution (HT-29 SF cells [4]; 25 or 50 μM DHEA, after the initial 24 hours) was “unchanged” and the “proportion of cells in S phase” value (HT-29 SF cells [4]; 25 or 50 μM DHEA, as time of exposure increased) was “progressively decreased”. For the same molecule, the cell morphology (HT-29 SF cells [3]; DHEA exposure (data not shown)) was “rounded shape”, the “proportion of cells in S phase” value (HT-29 SF cells [3]; with increasing exposure time (48 and 72 hours)) was “progressively reduced” and the inhibition of growth (HT-29 SF cells [5]; 0-200 μM DHEA, 0-72 hours) was “time- and dose-dependent inhibition of growth”. For the same molecule, the “exposure time after which cell number was reduced compared to controls” value (HT-29 SF cells [5]; 12.5 μM DHEA) was 72 h, the “exposure time after which cell number was reduced compared to controls” value (HT-29 SF cells [5]; 25 μM DHEA) was 48 h and the “exposure time after which cell number was reduced compared to controls” value (HT-29 SF cells [5]; 50 μM DHEA) was 48 h. The “exposure time after which cell number was reduced compared to controls” value (HT-29 SF cells [5]; 200 μM DHEA) was 24 h, the “inhibition of G6PDH enzyme activity (in words)” value (purified G6PDH; various doses in the μM range, compared to controls) was “inhibited the enzyme activity in a statistically significant manner” and the “inhibition of the activity of purified G6PDH compared to control” value (purified G6PDH; concentration not given) was 72%.

For `C[C@@](O)(CCO)CC(=O)O` [MVA, mevalonic acid], the “reversal of DHEA-induced growth inhibition” value (HT-29 SF cells [2]) was “partially overcome”, the “prevention of DHEA-induced S phase depletion” value (HT-29 SF cells [3]; 48 hours) was “partially prevented” and the “prevention of DHEA-induced S phase depletion” value (HT-29 SF cells [3]; 72 hours) was “not”. For the same molecule, the “prevention of DHEA-induced rounded shape” value (HT-29 SF cells [3]; supplement added to culture medium (data not shown)) was “prevented”.

With `C[C@]12CCC(=O)C=C1CC[C@@H]1[C@@H]2CC[C@@]2(C)[C@H]1CC[C@]2(C)O` [Methyl-testosterone, methyltestosterone] the “effect on adenosine across organs” value ([1]; administered daily for two weeks) was “multi-organ depletion of adenosine”, the “depletion of adenosine in brain” value [1, 7] was 34% and the “depletion of adenosine in heart” value [1, 7] was 22%. The “Intracellular adenosine, Brain” value [1, 8] was 0.42 ± 0.06 nmols/mg protein, the “Intracellular adenosine, Heart” value [1, 8] was 8.3 ± 1.0 nmols/mg protein and the “Intracellular adenosine, Liver” value [1, 8] was 16.5 ± 0.9 nmols/mg protein. For the same molecule, the “Intracellular adenosine, Brain” value ([1]; methyltestosterone 120 mg/kg) was 0.32 ± 0.03 nmols/mg protein, the “Intracellular adenosine, Heart” value ([1]; methyltestosterone 120 mg/kg) was 6.0 ± 0.4 nmols/mg protein and the “Intracellular adenosine, Liver” value ([1]; methyltestosterone 120 mg/kg) was 5.1 ± 0.5 nmols/mg protein.

With `CC(C)=CCC/C(C)=C/CC/C(C)=C/CC/C=C(\C)CC/C=C(\C)CCC=C(C)C` [SQ, squalene] the “reversal of DHEA-induced growth inhibition” value (HT-29 SF cells [2]) was “no such effect”.
